# In patent US20240402196A1 (Exact Sciences Corporation, priority 2018, published 2024):
# What was measured:
# hemoglobin (Hb) = biological target: T1, hemoglobin (Hb) (Homo sapiens, UniProt P68871+P69905); test: Appendix B: additives in Hb Collection Buffer, % Hb Recovery
# T1 construct: To assess the stability of hemoglobin in stool samples, samples were exposed to simulated shipping stress conditions; from tissue; host or cells: stool samples
# Hb = biological target: T2, Hb (Homo sapiens, UniProt P68871+P69905); test: Appendix B additive screen, % Hb Recovery
# T2 construct: To assess the stability of hemoglobin in stool samples, samples were exposed to simulated shipping stress conditions; from tissue; host or cells: stool samples
# T2 sequence (P69905 2-142 limits assumed): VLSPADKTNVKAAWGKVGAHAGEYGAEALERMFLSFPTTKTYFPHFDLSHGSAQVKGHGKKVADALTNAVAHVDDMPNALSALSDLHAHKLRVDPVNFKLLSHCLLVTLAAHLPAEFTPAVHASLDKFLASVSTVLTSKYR
# T2 sequence (P68871 2-147 limits assumed): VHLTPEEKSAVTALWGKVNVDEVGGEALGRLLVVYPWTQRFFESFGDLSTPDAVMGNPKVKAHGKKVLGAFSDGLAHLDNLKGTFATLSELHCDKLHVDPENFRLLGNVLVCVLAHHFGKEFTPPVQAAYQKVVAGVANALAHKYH
# T1 sequence (P69905 2-142 limits assumed): as the sequence (P69905 2-142 limits assumed) above
# T1 sequence (P68871 2-147 limits assumed): as the sequence (P68871 2-147 limits assumed) above
compound,measurement,setting,value
C=CC1=C(C)c2cc3[n-]c(cc4nc(cc5[n-]c(cc1n2)c(C)c5CCC(=O)O)C(CCC(=O)O)=C4C)c(C)c3C=C.[Mg+2] [Protoporphyrin IX Magnesium],Results,hemoglobin (Hb); Additive Concentration 0.1 uM,No Improvement
same,Results,hemoglobin (Hb); Additive Concentration 1 uM,No Improvement
same,Results,hemoglobin (Hb); additive concentration 10 uM,No Improvement
same,Results,hemoglobin (Hb); additive concentration 25 uM,No Improvement
same,Results,hemoglobin (Hb); additive concentration 50 uM,No Improvement
[Cl][Fe][Cl] [Iron (2) Chloride],Results,Hb,No Improvement
O=C([O-])[O-].[Na+].[Na+] [Sodium Carbonate],Results,Hb,No Improvement
NCC(=O)O [Glycine],Results,Hb,No Improvement
C=CC1=C(C)c2cc3[n-]c(cc4nc(cc5[n-]c(cc1n2)c(C)c5C=C)C(C)=C4CCC(=O)O)c(CCC(=O)O)c3C.[Zn+2] [Protoprophyrin IX Zn],Results,Hb,No Improvement
OCCO [Ethylene Glycol],Results,Hb,No Improvement
O=S([O-])O.[Na+] [Sodium Bisulfite],Results,Hb,No Improvement
N.N.O=C(O)C(=O)O [Ammonium Oxalate],Results,Hb,No Improvement
C=CC1=C(C)c2cc3[n-]c(cc4nc(cc5[n-]c(cc1n2)c(C)c5C=C)C(C)=C4CCC(=O)O)c(CCC(=O)O)c3C.[Cu+2] [Protoporphyrin IX Copper],Results,hemoglobin (Hb); Additive Concentration 0.1 uM,No Improvement
same,Results,hemoglobin (Hb); Additive Concentration 1 uM,No Improvement
same,Results,hemoglobin (Hb); additive concentration 10 uM,No Improvement
phosphatidylcholine,Results,Hb,No Improvement
C=CC1=C(C)c2cc3[n-]c(cc4nc(cc5[n-]c(cc1n2)c(C)c5C=C)C(C)=C4CCC(=O)O)c(CCC(=O)O)c3C.[Cl-].[Mn+3] [Protoporphyrin IX Mangansese],Results,hemoglobin (Hb); Additive Concentration 0.05 uM,No Improvement
same,Results,hemoglobin (Hb); Additive Concentration 0.1 uM,No Improvement
same,Results,hemoglobin (Hb); Additive Concentration 1 uM,No Improvement
same,Results,hemoglobin (Hb); additive concentration 10 uM,No Improvement
CC(=O)[O-].[Na+] [Sodium Acetate],Results,Hb,No Improvement
"C=CC1=C(C)c2cc3[n-]c(cc4nc(cc5[n-]c(cc1n2)c(C)c5C=C)C(C)=C4CCC(=O)O)c(CCC(=O)O)c3C.[Cl-].[Fe+3] [Hemin, pH 6.5]",Results,hemoglobin (Hb); Additive Concentration 0.00%,Improvement in % Hb
same,Results,hemoglobin (Hb); additive concentration 0.0003%,Improvement in % Hb
O.O.[Ca+2].[Cl-].[Cl-] [Calcium Chloride (dihydrate)],Results,Hb,Calcium cation shows
"BSA, pH 6.5",Results,hemoglobin (Hb); Additive Concentration 0%,No Improvement
same,Results,hemoglobin (Hb); Additive Concentration 0.50%,No Improvement
same,Results,hemoglobin (Hb); Additive Concentration 1%,No Improvement
same,Results,hemoglobin (Hb); Additive Concentration 5%,No Improvement
same,Results,hemoglobin (Hb); Additive Concentration 10%,No Improvement
N.N.O=S(=O)(O)O [Ammonium Sulfate],Results,Hb,No Improvement
Sodium hydroxylmethyl glycinate,Results,Hb,No Improvement
O=P(O)(O)O [Sodium Phosphate],Results,Hb,No Improvement
CCCCCCn1cc[n+](C)c1.[Cl-] [1-hexyl-3-methylimidazolium chloride],Results,Hb,No Improvement
[Br-].[Na+] [Sodium Bromide],Results,Hb,No Improvement
CCn1cc[n+](C)c1.[Cl-] [1-ethyl-3-methylimidazolium chloride],Results,Hb,No Improvement
"[Ca+2].[Cl-].[Cl-] [Calcium Chloride, pH 6.5]",Results,hemoglobin (Hb); Additive Concentration 10 mM,No Improvement
C=CC1=C(C)c2cc3[n-]c(cc4nc(cc5[n-]c(cc1n2)c(C)c5C=C)C(C)=C4CCC(=O)O)c(CCC(=O)O)c3C.[Cl-].[Cl-].[Sn+4] [Protoporphyrin IX Tin],Results,hemoglobin (Hb); Additive Concentration 0.1 uM,No Improvement
same,Results,hemoglobin (Hb); Additive Concentration 1 uM,No Improvement
same,Results,hemoglobin (Hb); additive concentration 10 uM,No Improvement
[O-][Cl+3]([O-])([O-])O [Sodium Perchlorate],Results,Hb,No Improvement
[Cl-].[Li+] [Lithium Chloride],Results,Hb,No Improvement
Calcium Gluconate,Results,Hb,No Improvement
Cl.Cn1sccc1=O [2-methyl-4-isothiazolin-3-one-hydrochloride],Results,Hb,No Improvement
O=C(O)[C@H]1OC(O)[C@H](O)[C@@H](O)[C@H]1O (stereo partly shown) [Galaturonic Acid],Results,hemoglobin (Hb); Additive Concentration 0.01%,No Improvement
same,Results,hemoglobin (Hb); Additive Concentration 0.01% + 10 mM,No improvement
same,Results,hemoglobin (Hb); Additive Concentration 0.10%,No Improvement
same,Results,hemoglobin (Hb); Additive Concentration 0.1% + 10 mM,No improvement
same,Results,hemoglobin (Hb); Additive Concentration 1%,No Improvement
same,Results,hemoglobin (Hb); Additive Concentration 1% + 10 mM,No improvement
